{
  "source": "patent US5464826A",
  "about": "“Method of treating tumors in mammals with 2',2'-difluoronucleosides” (Eli Lilly and Company, priority 1994, dated 1995)",
  "key": {"[1]": {"test_system": "human leukemic cells (CCRF-CEM cell line)", "test": "Cytotoxicity Screen (growth inhibition)", "assay_type": "cell-based", "settings": "for IC50: Homo sapiens, read-out: IC50 (concentration giving 50% growth inhibition)", "source_text": "The compounds represented by formula I employed in the present invention are cytostatic in that they inhibit the growth of human leukemic cells (CCRF-CEM cell line). […] T1 TABLE 1-Cytotoxicity Screen? -Compound Name?"}, "[2]": {"test_system": "L1210V lymphocytic leukemia", "test": "L1210V Lymphocytic Leukemia Tumor System", "assay_type": "in vivo, mice", "settings": "Experiment 1, IP; for Indefinite Survivors: 45 day survivors; for Toxic Deaths: deaths/mice in group", "description": "The study testing the efficacy of these compounds against L1210V leukemia was initiated by an IP inoculation of 1×10^6 cells. Treatment was begun 24 hours after inoculation. The response to therapy was determined by comparing the mean life span of the ten treated animals to that of the ten control animals; prolongation of life in the treated animals beyond that of controls is expressed as a percentage. In the Table, column 1 gives the example number of the compound tested; column 2, the experiment number; column 3, the dose level of the compound in mg/kg; column 4, the route of administration; column 5, the dosage schedule, that is, the days on which the compound was administered to the mice; column 6, the average increase in life span of the treated mice as compared to the control mice; column 7, the toxic deaths over the number of mice in each group; and column 8, the indefinite survivors, that is, the number of 45 day survivors in each group."}, "[3]": {"test_system": "X5563 plasma cell myeloma", "test": "X5563 plasma cell myeloma tumor model", "assay_type": "in vivo, mice (C3H)", "settings": "30.0 mg/kg; IP; Daily for 9 days", "source_text": "X5563 Myeloma--the tumor is maintained in C3H mice.\n(§1) The tumor was removed from passage animals and minced into 1 to 3 mm square fragments using sterile techniques. Tumor pieces were checked for sterility using both Antibiotic Medium 1 and Brain Heart Infusion (Difco; Detroit, Mich.). Recipient mice were shaved and tumor pieces were implanted subcutaneously in the axillary region by trocar. Drug therapy on the appropriate schedule was initiated on the day after tumor implant. The compound was dissolved in saline for all experiments. All animals were weighed at the beginning and end of drug treatment. Food and water were provided ad libitum. On days 10 to 12, two dimensional measurements (width and length) of all tumors were taken using vernier calipers. Tumor weights were calculated from these measurements using the following formula:\nTumor Weight (mg)=Tumor Length (mm)×Tumor Width (mm)^2 /2\nFor all data, the tumor weight was rounded to the nearest tenth of a gram for analysis. No group is included in the analysis for therapeutic activity in which deaths attributable to drug toxicity exceeded 30 percent of the treated group.\nIn Table 3 which follows, column 1 gives the example number of the compound tested; column 2 provides the tumor system; column 3, the dose level; column 4, the route administered; column 5, the dosage schedule; column 6, the percent inhibition of the tumor; and column 7, the toxic deaths observed prior to completion of the study."}, "[4]": {"test_system": "6C3HED, CA755, P1534J, X5563", "test": "additional tumor test systems (summary statement)", "assay_type": "in vivo, mice", "settings": "systems include 6C3HED", "source_text": "These systems include the 6C3HED lymphosarcoma, also known as the Gardner lymphosarcoma (6C3HED); the CA-755 adenocarcinoma (CA755); the P1534J lymphatic leukemia (P1534J); and the X5563 plasma cell myeloma (X5563). Each of these systems is described in detail below.\nas §1, with “formula: […]” for “formula:”"}},
  "note": "Where two headings read alike, the source gives them in different places.",
  "data": [
    {"molecule": "1-(2,6-diamino-9H-purin-9-yl)-2-desoxy-2,2-difluororibose", "values": [
      {"measurement": "IC50 (concentration giving 50% growth inhibition)", "setting": "[1]", "result": 0.075, "unit": "µg/mL"}
    ]},
    {"molecule": "1-(6-Amino-9H-purin-9-yl)-2-desoxy-2,2-difluororibose [Example 6]", "values": [
      {"measurement": "Percent Increase Life Span", "setting": "[2]; 100.0 mg/kg, Daily for 9 days", "result": 16, "unit": "%"},
      {"measurement": "Indefinite Survivors", "setting": "[2]; 100.0 mg/kg, Daily for 9 days", "result": 0},
      {"measurement": "Toxic Deaths", "setting": "[2]; 100.0 mg/kg, Daily for 9 days", "result": "0/7"},
      {"measurement": "Percent Increase Life Span", "setting": "[2]; 200.0 mg/kg, Daily for 9 days", "result": 18, "unit": "%"},
      {"measurement": "Indefinite Survivors", "setting": "[2]; 200.0 mg/kg, Daily for 9 days", "result": 0},
      {"measurement": "Toxic Deaths", "setting": "[2]; 200.0 mg/kg, Daily for 9 days", "result": "0/7"}
    ]},
    {"molecule": "Nc1ccn(C2O[C@H](CO)[C@H](O)C2(F)F)c(=O)n1", "note": "(stereo partly shown) [Example 5, 1-(4-Amino-2-oxo-1H-pyrimidin-1-yl)-2-desoxy-2,2-difluoroxylose]", "values": [
      {"measurement": "Percent Inhibition of Tumor", "setting": "[3]", "result": 28, "unit": "%"},
      {"measurement": "Toxic Deaths", "setting": "[3]", "result": "0/10"},
      {"measurement": "activity in additional tumor test systems (in words)", "setting": "[4]", "result": "demonstrated activity in additional tumor test systems"},
      {"measurement": "IC50", "setting": "[1]; CCRF-CEM", "result": 0.3, "unit": "µg/mL"},
      {"measurement": "Percent Increase Life Span", "setting": "[2]; 30.0 mg/kg, Daily for 10 days", "result": 57, "unit": "%"},
      {"measurement": "Indefinite Survivors", "setting": "[2]; 30.0 mg/kg, Daily for 10 days", "result": 0},
      {"measurement": "Toxic Deaths", "setting": "[2]; 30.0 mg/kg, Daily for 10 days", "result": "0/10"}
    ]},
    {"molecule": "Nc1ncnc2c1ncn2[C@@H]1O[C@H](CO)[C@@H](O)C1(F)F", "note": "[β-1-(6-amino-9H-purin-9-yl)-2-desoxy-2,2-difluororibose]", "values": [
      {"measurement": "IC50", "setting": "[1]", "result": 0.5, "unit": "µg/mL"}
    ]},
    {"molecule": "O=c1[nH]c(=O)c2ncn(C3O[C@H](CO)[C@@H](O)C3(F)F)c2[nH]1", "note": "(stereo partly shown) [1-(2,6-dioxo-1H,3H,9H-purin-9-yl)-2-desoxy-2,2-difluororibose]", "values": [
      {"measurement": "IC50", "setting": "[1]", "result": 0.3, "unit": "µg/mL"}
    ]},
    {"molecule": "Cc1cn(C2O[C@H](CO)[C@@H](O)C2(F)F)c(=O)nc1N", "note": "(stereo partly shown) [Example 4, 1-(4-Amino-5-methyl-2-oxo-1H-pyrimidin-1-yl)-2-desoxy-2,2-difluororibose]", "values": [
      {"measurement": "IC50", "setting": "[1]", "result": 0.3, "unit": "µg/mL"}
    ]},
    {"molecule": "Nc1nc(Cl)nc2c1ncn2[C@H]1O[C@H](CO)[C@@H](O)C1(F)F", "note": "[α-1-(2-chloro-6-amino-9H-purin-9-yl)-2-desoxy-2,2-difluororibose]", "values": [
      {"measurement": "IC50", "setting": "[1]", "result": "> 20", "unit": "µg/mL"}
    ]},
    {"molecule": "Nc1nc(Cl)nc2c1ncn2[C@@H]1O[C@H](CO)[C@@H](O)C1(F)F", "note": "[β-1-(2-chloro-6-amino-9H-purin-9-yl)-2-desoxy-2,2-difluororibose]", "values": [
      {"measurement": "IC50", "setting": "[1]", "result": 0.4, "unit": "µg/mL"}
    ]},
    {"molecule": "Nc1nc2c(ncn2C2O[C@H](CO)[C@@H](O)C2(F)F)c(=O)[nH]1", "note": "(stereo partly shown) [1-(2-amino-6-oxo-1H,9H-purin-9-yl)-2-desoxy-2,2-difluororibose]", "values": [
      {"measurement": "IC50", "setting": "[1]", "result": 0.1, "unit": "µg/mL"}
    ]},
    {"molecule": "Nc1ncnc2c1ncn2[C@H]1O[C@H](CO)[C@@H](O)C1(F)F", "note": "[α-1-(6-amino-9H-purin-9-yl)-2-desoxy-2,2-difluororibose]", "values": [
      {"measurement": "IC50", "setting": "[1]", "result": 6.9, "unit": "µg/mL"}
    ]},
    {"molecule": "O=c1ccn(C2O[C@H](CO)[C@@H](O)C2(F)F)c(=O)[nH]1", "note": "(stereo partly shown) [Example 3, 1-(2,4-Dioxo-1H, 3H-pyrimidin-1-yl)-2-desoxy-2,2-difluororibose]", "values": [
      {"measurement": "IC50", "setting": "[1]", "result": 5.4, "unit": "µg/mL"}
    ]}
  ]
}
